Source: patent US9353048B2, “Compound as KCNQ potassium channel agonist, preparation method therefor and use thereof” (SHANGHAI INSTITUTE OF MATERIA MEDICA, CHINESE ACADEMY OF …, priority 2011, dated 2016)
Values joined by “and” are separate entries in the source; they are usually repeats but may differ in a detail not shown here. Identical values can stand only once. “Also recorded” adds a separate entry of the source. Counter-ions that a name gives are not always drawn. Marks after values point to notes of the source that are not given here.

Legend:
[1] = tested on: Convulsion Induced by Pentylenetetrazole (PTZ); assay: Convulsion induced by pentylenetetrazole (PTZ), compounds by gastric lavage, C57BL/6J mice; format: in vivo; settings: 30 mg/kg gastric lavage; for Latency period of clonus / Latency period of whole-body tonic seizures / Mortality rate / Incidence rate of convulsion: PTZ 80 mg/kg s.c. 1 h later; for Incidence rate of convulsion: observed 60 min; for anti-convulsive effect (in words): PTZ-induced convulsion
Experimental: The compounds to be tested were administrated to animals by gastric lavage (30 mg/kg); one hour later, pentylenetetrazole was administrated by subcutaneous injection (PTZ 80 mg/kg); and response of animals were observed within a period of 60 min.

[2] = Solubility in water (treatment of samples)
KCNQ channels = assay: Whole-cell voltage-clamp electrophysiological recording in CHO cells transfected with KCNQ channels; format: cell-based; settings: for I/I0: activation multiple, maximum induced current at −10 mV testing voltage after administration (10 μM) vs before, >1 activating, <1 inhibiting; for ΔV1/2: shift of V1/2 of current activation curve, negative sign = left-ward shift, CHO cells
Experimental: The formulation of culture fluid for Chinese hamster […] (CHO) (Culture Collection of Chinese Academy of Sciences): 50/50 DMEM/F-12 (Cellgro, Mamassas, Va.), 10% fetal bovine serum (FBS) (Gibco, Australia) and 2 mM […] (Invitrogen). […] Lipofectamine2000™ agent (Invitrogen) was used for Transfection according to the protocol thereof. […] After cotransfection with GFP (green fluorescent protein), transfected cells could be determined under a fluorescence microscopy.
Whole-cell voltage-clamp recording was performed by using Axopatch-200B amplifier (Molecular Devices, Sunnyvale, Calif.) at room temperature. Borosilicate glass capillary tubes (World Precision Instruments, Sarasota, Fla.) were drawn into electrodes. The electric resistance of the electrodes filled with an intracellular fluid is 3 to 5 MΩ. […] During the recording, an extracellular fluid was continuously perfused by using a BPS perfusion system (ALA Scientific Instruments, Westburg, N.Y.). The formulation of the extracellular fluid was as follows: 140 mM NaCl, 5 mM KCl, 2 mM CaCl2, 1.5 mM MgCl2, 10 mM HEPES and 10 mM glucose (the pH value of the extracellular fluid was adjusted to 7.4 with NaOH). […] Resistors were connected in series to compensate 60 to 80% of signal loss. At present, multivoltage scheme was generally adopted, wherein the clamp voltage was set at −100 mV. Current was induced in cells by a series of 2000 ms stimulating voltage (from −90 mV up to +50 mV, with interval of 10 mV).
In the following table, V1/2 is the voltage at which 50% of cells were activated, ΔV1/2 is amount of a left-ward shift of V1/2, negative sign (−) represents a left-ward shift of the current activation curve and positive sign (+) represents a right-ward shift of the curve. I/I0 is the activation multiple, wherein, I0 is the maximum induced current produced under stimulation of −10 mV testing voltage, I is the maximum induced current produced under stimulation of −10 mV testing voltage after administration (10 μM), I/I0>1 represents activating activity, and I/I0<1 represents inhibiting activity. N is the number of tested cells. NT represents non-tested.

[3] = tested on: Animal Models Induced by MES; assay: MES test, compounds orally administrated (gastric lavage), KM mice; format: in vivo; settings: for Incidence rate of convulsion / Protection rate of compounds: 30 mg/kg gastric lavage, MES 1 hour later; for effect in MES test (in words): gastric lavage
Experimental: (§1) One time of electrical stimulation was applied to animals through ear clip electrodes, and a convulsion characterized by a tonic hind limb extension was observed. One day before the test, animals were screened in the above procedure to record the values of MES.
1 hour later, MES was applied according to parameters set the last day, and response of animals were observed and recorded immediately.

[4] = tested on: Animal Models Induced by PTZ; assay: PTZ test, compounds orally administrated (gastric lavage), KM mice; settings: for Incidence of tonic fore limb extension / Incidence of tonic hind limb extension / Latency period of clonus / Latency period of fore limb extension / Mortality rate / Incidence rate of clonus: 30 mg/kg gastric lavage; for Incidence rate of clonus: PTZ 100 mg/kg s.c. 1 h later, observation 1 h; for effect in PTZ test (in words): gastric lavage
Experimental: Response of animals were observed immediately and recorded within a period of 1 h.

[5] = tested on: Animal Models Induced by MES (Maximum Electroshock); assay: MES test, compounds by intraperitoneal injection, KM mice; format: in vivo; settings: 10 mg/kg i.p.; for Mortality rate / Incidence of convulsion: MES 30 min later; for Incidence of convulsion: tonic hind limb extension
Text: as §1

[6] = tested on: Animal Models Induced by PTZ (Pentylenetetrazole); assay: PTZ test, compounds by intraperitoneal injection, KM mice; format: in vivo; settings: for Incidence rate of convulsion: PTZ 100 mg/kg s.c. 30 min later, observation 1 h
Experimental: Compounds to be tested were administrated by intraperitoneal injection (10 mg/kg, 5 mg/kg, 2.5 mg/kg, 0.1 ml/10 g).

in vivo = settings: mouse, 20 mg/kg
Experimental: Two hours after administration, animal were fed uniformly. Specific arrangement was as following table.
After administration by gastric lavage or intravenous injection, mice were sacrificed by cutting abdominal aorta at time points set as the above with 3 mice for each time point. 0.5 mL of whole blood was collected for each animal, placed into a heparinized test tube and subjected to centrifugation at 3000 rpm to separate plasma, which was then cryopreserved in a −20° C. refrigerator. After the animals were sacrificed, their whole brain was collected, washed with ice-cooled physiological saline to remove residual blood. Then the residual liquid was absorbed to dryness. The treated brain was labeled and cryopreserved in a −20° C. refrigerator.

## COC(=O)Nc1ccc(NCc2ccc(F)cc2)cc1 [Compound K1]
[1]
  Latency period of clonus: 250 ± 114 s
  Latency period of whole-body tonic seizures: 1785 ± 408 s
  Mortality rate: 3/10
  Incidence rate of convulsion: 4/10
[2]
  solubility in water (in words): can not be easily dissolved in water
KCNQ channels
  I/I0: 2.84 ± 0.08
  ΔV1/2: −8.1 ± 3.1 mV

## C#CCN(Cc1ccc(F)cc1)c1ccc(NC(=O)OCC)c(N)c1 [Compound K21, ethyl 2-amino-4-(N-parafluorobenzyl-N-propargyl-imino)-aniline formate]
[3]
  Incidence rate of convulsion: 2/13***
  Protection rate of compounds: 84.6%***
  effect in MES test (in words): significantly inhibiting the incidence of the grand mal seizure
[4]
  Incidence of tonic fore limb extension: 5/12
  Incidence of tonic hind limb extension: 0/12**
  Latency period of clonus: 148 ± 37 s
  Latency period of fore limb extension: 1561 ± 690 s
  Mortality rate: 3/12
  Incidence rate of clonus: 12/12
  effect in PTZ test (in words): significantly inhibit tonic seizures
[2]
  solubility in water (in words): can not be easily dissolved in water
KCNQ channels
  I/I0: 1.53 ± 0.15
  ΔV1/2: −47.9 ± 3.5 mV
[5]
  grand mal seizure in MES test (in words): completely avoided the grand mal seizure
  Mortality rate: 0
  Incidence of convulsion: 2/10***
[6]; 2.5 mg/kg i.p.
  Incidence of tonic fore limb extension: 2/10
  Incidence of tonic hind limb extension: 0/10***
  Latency period of clonus: 184 ± 42 s
  Mortality rate: 1/10**
  Incidence rate of convulsion: 9/10
[6]; 5 mg/kg i.p.
  Incidence of tonic fore limb extension: 3/10
  Incidence of tonic hind limb extension: 0/10***
  Latency period of clonus: 238 ± 54 s
  Mortality rate: 1/10**
  Incidence rate of convulsion: 10/10
[6]; 10 mg/kg i.p.
  Incidence of tonic hind limb extension: 0/12***
  Mortality rate: 0/12***
  Incidence rate of convulsion: 12/12
[6]; intraperitoneal injection
  sedative effect: some sedative effect
[6]; intraperitoneal injection, same dosage, PTZ and MES tests
  anti-convulsive effect compared with retigabine (in words): slightly stronger than that of retigabine

## CCOC(=O)Nc1ccc(NCc2ccc(F)cc2)cc1N [Retigabine, retigabine, reference compound]
[1]
  Latency period of clonus: No typical
  Latency period of whole-body tonic seizures: 1472 ± 961 s
  Mortality rate: 4/10
  Incidence rate of convulsion: 5/10
  anti-convulsive effect (in words): comparable anti-convulsive effect
[1]; returned to normal after 20 min
  behaviour of animals after administration: quite and less active
[3]
  Incidence rate of convulsion: 5/13***
  Protection rate of compounds: 61.5%***
  effect in MES test (in words): significantly inhibiting the incidence of the grand mal seizure; also recorded: comparable effect
[4]
  Incidence of tonic fore limb extension: 3/12**
  Incidence of tonic hind limb extension: 0/12**
  Latency period of clonus: 177 ± 70 s
  Latency period of fore limb extension: 1063 ± 284 s
  Mortality rate: 0/12**
  Incidence rate of clonus: 12/12
  effect in PTZ test (in words): obviously reduce the incidence rate of convulsion and mortality rate; also recorded: significantly reduce the incidence rate of convulsion and mortality rate
[2]
  solubility in water (in words): can be easily dissolved in water
[5]
  Mortality rate: 0
  Incidence of convulsion: 4/11**
[6]; 2.5 mg/kg i.p.
  Incidence of tonic fore limb extension: 5/10
  Incidence of tonic hind limb extension: 1/10**
  Latency period of clonus: 179 ± 60 s
  Latency period of tonic hind limb: 827 s
  Mortality rate: 7/10
  Incidence rate of convulsion: 10/10
[6]; 5 mg/kg i.p.
  Incidence of tonic fore limb extension: 4/10
  Incidence of tonic hind limb extension: 2/10*
  Latency period of clonus: 184 ± 40 s
  Latency period of tonic hind limb: 883 ± 151 s
  Mortality rate: 5/10
  Incidence rate of convulsion: 10/10
[6]; 10 mg/kg i.p.
  Incidence of tonic hind limb extension: 4/12*
  Latency period of clonus: 239 ± 113 s
  Latency period of tonic hind limb: 1100 ± 319 s
  Mortality rate: 2/12**
  Incidence rate of convulsion: 10/10
[6]; intraperitoneal injection
  sedative effect: some sedative effect

## C#CCN(Cc1ccc(F)cc1)c1ccc(NC(=O)OC)cc1 [Compound K9, methyl 4-(N-parafluorobenzyl-N-propargyl-imino)-aniline formate]
[1]
  Latency period of clonus: 351 ± 84.3 s
  Latency period of whole-body tonic seizures: 1382 ± 339 s
  Mortality rate: 4/10
  Incidence rate of convulsion: 4/10
  anti-convulsive effect (in words): comparable anti-convulsive effect
In vivo; male, KM
  Kp: 1.9
  bioavailability: 26%
In vivo; male, KM, iv
  AUC(0-t): 7.19 µg·h/mL
  Kp: 1.5
  clearance: 2.78 L/h/kg
In vivo; male, KM, po
  AUC(0-t): 1.86 µg·h/mL
  Cmax: 2200 ng/mL and 4420 ng/g
  half-life: ~1.2 h
In vivo
  area under the concentration-time curve (AUC0-t) in brain tissue: 3565 ng·h/g
In vivo; iv
  area under the concentration-time curve (AUC0-t) of brain tissue: 10694 ng·h/g
[2]
  solubility in water (in words): can not be easily dissolved in water
KCNQ channels
  I/I0: 3.27 ± 0.10
  ΔV1/2: −24.21 ± 2.4 mV
